# According to patent publication US20240026461A1, “BCL10 MUTATIONS AS BIOMARKERS FOR TARGETED THERAPY IN B CELL LYMPHOMAS” (priority 2022, published 2024):
# T1: MALT1 (of the lymphoma cell lysates, detected with anti-MALT1) (UniProt Q9UDY8 2-824, limits assumed)
# T1 construct: Cellular MALT1 co-precipitated or co-fractionated with Flag-BCL10; HBL1 is called a human lymphoma line
# T1 sequence (looked up): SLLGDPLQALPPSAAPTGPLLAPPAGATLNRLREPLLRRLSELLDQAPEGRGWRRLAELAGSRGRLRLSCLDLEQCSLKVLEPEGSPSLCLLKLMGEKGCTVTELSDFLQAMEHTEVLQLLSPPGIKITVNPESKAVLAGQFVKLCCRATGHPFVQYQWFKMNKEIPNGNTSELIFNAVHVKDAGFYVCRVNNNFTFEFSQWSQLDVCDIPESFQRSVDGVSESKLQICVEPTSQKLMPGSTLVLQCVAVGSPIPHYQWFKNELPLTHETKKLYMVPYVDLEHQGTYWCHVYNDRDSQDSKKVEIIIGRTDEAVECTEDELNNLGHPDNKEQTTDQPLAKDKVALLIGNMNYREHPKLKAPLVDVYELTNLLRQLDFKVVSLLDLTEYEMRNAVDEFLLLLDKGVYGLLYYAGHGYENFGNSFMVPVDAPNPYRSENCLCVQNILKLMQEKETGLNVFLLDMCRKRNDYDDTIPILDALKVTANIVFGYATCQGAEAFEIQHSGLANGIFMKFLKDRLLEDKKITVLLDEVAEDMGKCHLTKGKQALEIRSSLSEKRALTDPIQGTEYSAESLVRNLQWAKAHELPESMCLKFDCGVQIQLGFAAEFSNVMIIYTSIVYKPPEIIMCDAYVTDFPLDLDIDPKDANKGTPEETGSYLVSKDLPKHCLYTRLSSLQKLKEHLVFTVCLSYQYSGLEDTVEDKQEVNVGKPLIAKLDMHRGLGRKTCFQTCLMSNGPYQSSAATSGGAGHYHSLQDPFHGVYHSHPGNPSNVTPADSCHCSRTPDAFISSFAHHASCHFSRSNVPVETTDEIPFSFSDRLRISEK
# T2: MALT1 (Ig1-Ig2) (human, UniProt Q9UDY8 125-309)
# T2 construct: domain: Ig1-Ig2; also called Ig1-Ig2 construct of MALT1; MALT1 (207-309)
# T2 sequence (looked up): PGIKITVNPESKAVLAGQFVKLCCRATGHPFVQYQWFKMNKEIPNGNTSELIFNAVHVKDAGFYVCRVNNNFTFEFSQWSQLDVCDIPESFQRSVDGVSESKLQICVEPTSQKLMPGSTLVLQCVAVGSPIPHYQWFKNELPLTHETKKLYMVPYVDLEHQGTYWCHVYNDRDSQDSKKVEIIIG
# Tests used:
# HBL1^E140X = assay: Growth inhibition assay (CellTiter Glo), HBL1 cells expressing BCL10 E140X; assay type: cell-based; details: Homo sapiens, 96 h, read-out: IC50, growth inhibition, BTK inhibitors
# Procedure: (§1) DLBCL cell lines were cultured in exponential condition and the cell growth was determined by CellTiter Glo (Promega). 3000-5000 cells were seeded and cultured in each well of 384 well plate for 96 h and treated with compounds every 48 h. Luminescence was read at the endpoint with the Synergy NEO microplate reader (BioTek). The value of compound treated cells was normalized to their vehicle treated controls and then used to calculate IC50 in GraphPad Prism (RRID:SCR_002798).
# (§2) Given the distinct functional profiles, CARD11 dependencies, and MALT1 activation effects of the BCL10 CARD and truncation mutants, the inventors designed experiments to evaluate whether, and to what extent, these mutant BCL10 proteins might confer BTK inhibitor resistance. Isogenic ABC-DLBCL cells expressing BCL10WT, BCL10^R58Q and BCL10^E140X proteins were treated with escalating doses of three chemically distinct covalent BTK inhibitors: ibrutinib, acalabrutinib, or zanubrutinib. The cellular proliferation rates of the treated cells were measured using an ATP fluorescence assay after 96 hours of drug exposure.
# (§3) Isogenic BCL10^WT, BCL10^R58Q and BCL10^E140X ABC-DLBCLs were exposed to increasing concentrations of each of these compounds for 96 hours.
# OCI-LY10^E140X = assay: Growth inhibition assay (CellTiter Glo), OCI-Ly10 cells expressing BCL10 E140X; assay type: cell-based; details: Homo sapiens, 96 h, read-out: IC50, growth inhibition, BTK inhibitors
# Procedure: as §1, §2, §3
# HBL1^R58Q = assay: Growth inhibition assay (CellTiter Glo), HBL1 cells expressing BCL10 R58Q; assay type: cell-based; details: Homo sapiens, 96 h, read-out: IC50, growth inhibition, BTK inhibitors
# Procedure: as §1, §2, §3
# [1] = test system: BCL10^R58Q expressing ABC-DLBCL xenografts; assay: Xenograft, ibrutinib treatment, BCL10^R58Q tumors; assay type: in vivo, mice; details: ibrutinib 37mpk, oral gavage, Q.D.
# Source text: (§4) FIG. 6A-6K illustrate that BCL10 gain-of-function mutant lymphomas are resistant to upstream Bruton's tyrosine kinase (BTK) inhibitors. FIG. 6A illustrates growth inhibition assays of human diffuse large B-cell lymphoma (HBL1) cells and OCI-Ly10 lymphoma cells expressing wild type or mutant BCL10 protein in response to the BTK inhibitor Acalabrutinib. X axis, concentration of compound (M); Y axis, inhibition of cell growth normalized to vehicle treated cells. *p<0.05; **p<0.01; ****p<0.0001; ns, not significant. FIG. 6B illustrates growth inhibition assays of human diffuse large B-cell lymphoma (HBL1) cells and OCI-Ly10 lymphoma cells expressing wild type or mutant BCL10 protein in response to the BTK inhibitor Zanubrutinib. […] FIG. 6D illustrates luciferase activity measured in the MALT1 GloSensor reporter cell lines upon BTK inhibitor Acalabrutinib treatment. […] FIG. 6E illustrates luciferase activity measured in the MALT1 GloSensor reporter cell lines upon BTK inhibitor Zanubrutinib treatment. […] FIG. 6F illustrates luciferase activity measured in the MALT1 GloSensor reporter cell lines upon BTK inhibitor Ibrutinib treatment. […] AUC was calculated with Prism. FIG. 6J graphically illustrates tumor weight measured at the endpoint of tumors formed from xenografts of HBL1 cells expressing WT and mutant BCL10 (n=5-6/group). […]
# OCI-LY10^R58Q = assay: Growth inhibition assay (CellTiter Glo), OCI-Ly10 cells expressing BCL10 R58Q; assay type: cell-based; details: Homo sapiens, 96 h, read-out: IC50, growth inhibition, BTK inhibitors
# Procedure: as §1, §2, §3
# OCI-LY10^WT = assay: Growth inhibition assay (CellTiter Glo), OCI-Ly10 cells expressing BCL10 WT; assay type: cell-based; details: Homo sapiens, 96 h, read-out: IC50, growth inhibition, BTK inhibitors
# Procedure: as §1, §2, §3
# HBL1^WT = assay: Growth inhibition assay (CellTiter Glo), HBL1 cells expressing BCL10 WT; assay type: cell-based; details: Homo sapiens, 96 h, read-out: IC50, growth inhibition, BTK inhibitors
# Procedure: as §1, §2, §3
# [2] = test system: BCL10^WT expressing ABC-DLBCL xenografts; assay: Xenograft, ibrutinib treatment, BCL10^WT tumors; assay type: in vivo, mice; details: ibrutinib 37mpk, oral gavage, Q.D.
# Source text: as §4
# [3] = test system: BCL10^E140X expressing ABC-DLBCL xenografts; assay: Xenograft, ibrutinib treatment, BCL10^E140X tumors; assay type: in vivo, mice; details: ibrutinib 37mpk, oral gavage, Q.D.
# Source text: as §4
# [4] = target: T1, MALT1 (of the lymphoma cell lysates, …); assay: anti-Flag co-immunoprecipitation from Raji cells, anti-MALT1 blot
# Procedure: Lymphoma cells (10⁸) were collected, washed with cold PBS and resuspended with lysis buffer (1% NP40, 10% glycerol, 150 mM NaCl, 20 mM Tris-HCL pH 7.5, and freshly added protease inhibitors). The lysates were centrifuged at 15,000 g, 4° C. for 15 min and the supernatant was then collected and incubated with 50 μL equilibrated anti-Flag magnetic beads (Sigma-Aldrich Cat #M8823, RRID:AB_2637089) at 4° C. for 3 h. The beads were washed 3 times with lysis buffer and followed by 3 times washing with the lysis buffer without NP40. SDS loading buffer without […] reagent was added and boiled at 95° C. for 5 min. The elution was added for […] (final 10%), and ready to run western blot after boiling at 95° C. for 5 min.
# To investigate how the truncation mutants might affect CBM complex formation, Flag-tagged wild type and mutant forms of BCL10 were expressed in Raji cells, which lack constitutive B-cell receptor (BCR) signaling. Anti-Flag co-immunoprecipitations were performed on cell lysates. […] In contrast, there was less binding of MALT1 to BCL10^E140X, as well as to the similar BCL10^{K146Nfs*2} truncation mutant (FIG. 4A).
# MALT1 (Ig1-Ig2) = target: T2, MALT1 (Ig1-Ig2); assay: His pull-down after co-expression in E. coli, Coomassie-stained SDS-PAGE
# Procedure: The inventors designed experiments to determine whether there were additional MALT1-binding sites on BCL10 at its largely unstructured C-terminus. The C-terminal region was divided into two halves and MALT1 pull-down studies were performed. […] Of note, unlike the interaction between BCL10 CARD and MALT1 death domain (DD) in the filamentous form, the interaction between BCL10 C-terminal region and MALT1 Ig1-Ig2 is monomeric as assessed by gel filtration chromatography of the complex.
molecule,measurement,setting,value
C=CC(=O)N1CCC[C@@H](n2nc(-c3ccc(Oc4ccccc4)cc3)c3c(N)ncnc32)C1 [Ibrutinib],IC50,HBL1^E140X,11 nM
same,IC50,OCI-LY10^E140X,3.3 nM
same,IC50,HBL1^R58Q,6.1 nM
same,tumor growth of xenografts,[1],no significant anti-tumor effect
same,IC50,OCI-LY10^R58Q,2.2 nM
same,IC50,OCI-LY10^WT,0.66 nM
same,IC50,HBL1^WT,4 nM
same,tumor growth of xenografts,[2],suppressed growth
same,tumor growth of xenografts,[2]; listed as ibrutinib,expected growth suppression
same,tumor growth of xenografts,[3],no significant anti-tumor effect
"Flag-BCL10^E140X (other, Range 1-139 follows from the name E140X (stop codon at position 140); Expressed in Raji and HBL1 cells; also called Flag tagged E140X; truncating mutant at position 140; not shown: Flag tag) MEPTAPSLTEEDLTEVKKDALENLRVYLCEKIIAERHFDHLRAKKILSREDTEEISCRTSSRKRAGKLLDYLQENPKGLDTLVESIRREKTQNFLIQKITDEVLKLRNIKLEHLKGLKCSSCEPFPDGATNNLSRSNSD",binding result,[4],binds
"GLKCSSCEPFPDGATNNLSRSNSDESNFSEKLRASTVMYHPEGESSTTP (other, Co-expressed with MALT1 Ig1-Ig2 in E. coli; not shown: His tag) [His-tagged BCL10 (116-164)]",binding result,MALT1 (Ig1-Ig2),no binding
